Experimental data from patent publication US5652238A, “Esters of substituted-hydroxyacetyl piperazine phenyl oxazolidinones” (Pharmacia & Upjohn Company, priority 1996, dated 1997).
Converted amounts (≈) assume the structure as drawn. Counter-ions that a name gives are not always drawn.

What was measured:
[1] = tested on: Staphylococcus aureus UC9213 or Streptococcus species; assay: Antimicrobial activity in vivo, Murine Assay (mice infected intraperitoneally with bacteria; ED50 from survival over six days); conditions: 144 h, female mice, treatment one hour and five hours after infection
Experimental: Antimicrobial activity was tested in vivo using the Murine Assay procedure. Groups of female mice (six mice of 18-20 grams each) were injected intraperitoneally with bacteria which were thawed just prior to use and suspended in brain heart infusion with 4% brewers yeast UC9213 (Staphylococcus aureus) or brain heart infusion (Streptococcus species). Antibiotic treatment at six dose levels per drug was administered one hour and five hours after infection by either oral intubation or subcutaneous ("subcut.") routes. Survival was observed daily for six days. ED50 values based on mortality ratios were calculated using probit analysis. The subject compounds were compared against a well-known antimicobial (Vancomycin) as a control.

[2] = Aqueous solubility (pH 7, phosphate buffer); format: physicochemical

SMILES | solubility [2] [µg/mL] | ED50 ([1]; oral) [mg/kg] | ED50 ([1]; sc, subcut.) [mg/kg]
CC(=O)NC[C@H]1CN(c2ccc(N3CCN(C(=O)COC(=O)c4cccnc4)CC3)c(F)c2)C(=O)O1 [Example 2, Nicotinic acid, 2-[4-[4-[5-[(acetylamino)methyl]-2-oxo-3-oxazolidinyl]-2-fluorophenyl]-1-piperazinyl]-2-oxoethyl ester, (S)-] | 300 (≈ 0.601 mM) | 9 | 15
CC(=O)NC[C@H]1CN(c2ccc(N3CCN(C(=O)COC(=O)CN(C)C)CC3)c(F)c2)C(=O)O1 [Example 9, Glycine, N,N-dimethyl-, 2-[4-[4-[5-[(acetylamino)methyl]-2-oxo-oxazolidinyl]-2-fluorophenyl]-1-piperazinyl]-2-oxoethyl ester, (S)-] | 150000 (≈ 313 mM) | 2 | 3
COCCOC(=O)OCC(=O)N1CCN(c2ccc(N3C[C@H](CNC(C)=O)OC3=O)cc2F)CC1 [Example 6, Carbonic acid, 2-[4-[4-[5-[(acetylamino)methyl]-2-oxo-3-oxazolidinyl]-2-fluorophenyl]-1-piperazinyl]-2-oxoethyl ester-2-methoxyethyl ester, (S)] | 2900 (≈ 5.84 mM) | 2 | 2
CC(=O)NC[C@H]1CN(c2cc(F)c(N3CCN(C(=O)COC(=O)CN(C)C)CC3)c(F)c2)C(=O)O1 [Example 10, Glycine, N,N-dimethyl-, 2-[4-[4-[5-[(acetylamino)methyl]-2-oxo-3-oxazolidinyl]-2,6-difluorophenyl]-1-piperazinyl]-2-oxoethyl ester, (S)-] | 4200 (≈ 8.44 mM) | 1 | 2
CC(=O)CCC(=O)OCC(=O)N1CCN(c2c(F)cc(N3C[C@H](CNC(C)=O)OC3=O)cc2F)CC1 [Example 18, 4-Oxo-valeric acid, 2-(4-(4-(5-((acetylamino)methyl)-2-oxo-3-oxazolidinyl)-2,6-difluorophenyl)-1-piperazinyl)-2-oxoethyl ester, (S)] | 1200 (≈ 2.35 mM) | 14 | > 20
CC(=O)NC[C@H]1CN(c2cc(F)c(N3CCN(C(=O)COC(=O)CCC(=O)O)CC3)c(F)c2)C(=O)O1 [Example 15, Succinic acid, 2-(4-(4-(5-((acetylamino)methyl)-2-oxo-3-oxazolidinyl)-2,6-difluorophenyl)-1-piperazinyl)-2-oxoethyl monoester, (S)] | 12300 (≈ 24 mM) | – | –
CC(=O)CCC(=O)OCC(=O)N1CCN(c2ccc(N3C[C@H](CNC(C)=O)OC3=O)cc2F)CC1 [Example 19, 4-Oxo-valeric acid, 2-(4-(4-(5-((acetylamino)methyl)-2-oxo-3-oxazolidinyl)-2-fluorophenyl)-1-piperazinyl)-2-oxoethyl monoester, (S)] | 2290 (≈ 4.65 mM) | – | –
CC(=O)NC[C@H]1CN(c2cc(F)c(N3CCN(C(=O)COC(=O)c4ccc(N(C)C)cc4)CC3)c(F)c2)C(=O)O1 [Example 8, 4-dimethylaminobenzoic acid, 2-[4-[4-[5-[(acetylamino)methyl]-2-oxo-3-oxazolidinyl]-2,6-difluorophenyl]-1-piperazinyl]-2-oxoethyl ester, (S)-] | 10 (≈ 0.0179 mM) | 10 | 6
CC(=O)NC[C@H]1CN(c2cc(F)c(N3CCN(C(=O)COC(=O)CCC(=O)O)CC3)c(F)c2)C(=O)O1 [Example 16, Succinic acid, 2-(4-(4-(5-((acetylamino)methyl)-2-oxo-3-oxazolidinyl)-2,6-difluorophenyl)-1-piperazinyl)-2-oxoethyl monoester, sodium salt, (S)] | – | 4 | –
CC(=O)NC[C@H]1CN(c2ccc(N3CCN(C(=O)COC(=O)CCN(C)C)CC3)c(F)c2)C(=O)O1 [Example 11, 3-(Dimethylamino)propanoic acid, 2-[4-[4-[5-[(acetylamino)methyl]-2-oxo-3-oxazolidinyl]-2-fluorophenyl]-1-piperazinyl]-2-oxoethyl ester, (S)-] | – | 8 | 8
CC(=O)NC[C@H]1CN(c2cc(F)c(N3CCN(C(=O)COC(C)=O)CC3)c(F)c2)C(=O)O1 [Example 14, Acetic acid, 2-(4-(4-(5-((acetylamino)methyl)-2-oxo-3-oxazolidinyl)-2,6-difluorophenyl)-1-piperazinyl)-2-oxoethyl ester, (S)] | 1600 (≈ 3.52 mM) | 3 | –
CC(=O)NC[C@H]1CN(c2ccc(N3CCN(C(=O)COC(=O)CCC(=O)O)CC3)c(F)c2)C(=O)O1 [Example 17] | 28000 (≈ 56.6 mM) | 5 | 2
CC(=O)NC[C@H]1CN(c2cc(F)c(N3CCN(C(=O)COC(=O)c4cccnc4)CC3)c(F)c2)C(=O)O1 [Example 3, Nicotinic acid, 2-[4-[4-[5-[(acetylamino)methyl]-2-oxo-3-oxazolidinyl]-2,6-difluorophenyl]-1-piperazinyl]-2-oxoethyl ester, (S)-6] | 50 (≈ 0.0966 mM) | 16 | 8
CC(=O)NC[C@H]1CN(c2ccc(N3CCN(C(=O)COC(=O)CCCN(C)C)CC3)c(F)c2)C(=O)O1 [Example 12, 4-(Dimethylamino)butanoic acid, 2-[4-[4-[5-[(acetylamino)methyl]-2-oxo-3-oxazolidinyl]-2-fluorophenyl]-1-piperazinyl]-2-oxoethyl ester, (S)-] | 34600 (≈ 68.2 mM) | 12 | > 20
CC(=O)NC[C@H]1CN(c2cc(F)c(N3CCN(C(=O)COC(=O)n4ccnc4)CC3)c(F)c2)C(=O)O1 [Example 5, 1H-imidazole-1-carboxylic acid, 2-[4-[4-[5-[(acetylamino)methyl]-2-oxo-3-oxazolidinyl]-2,6-difluorophenyl]-1-piperazinyl]-2-oxoethyl ester, (S)-] | – | 7 | 5
CC(=O)NC[C@H]1CN(c2ccc(N3CCN(C(=O)COC(=O)c4ccc(N(C)C)cc4)CC3)c(F)c2)C(=O)O1 [Example 7, 4-dimethylaminobenzoic acid, 2-[4-[4-[5-[(acetylamino)methyl]-2-oxo-3-oxazolidinyl]-2-fluorophenyl]-1-piperazinyl]-2-oxoethyl ester, (S)-] | 10 (≈ 0.0185 mM) | > 20 | 1
CC(=O)NC[C@H]1CN(c2cc(F)c(N3CCN(C(=O)COC(=O)CO)CC3)c(F)c2)C(=O)O1 [Example 24, Hydroxyacetic acid, 2-[4-[4-[5-[(acetylamino)methyl]-2-oxo-3-oxazolidinyl]-2,6-difluorophenyl]-1-piperazinyl]-2-oxoethyl ester,] | – | 1 | –

Now from value to compound, other results behind:

solubility [2] [µg/mL] | SMILES | ED50 ([1]; oral) [mg/kg] | ED50 ([1]; sc, subcut.) [mg/kg]
25700 (≈ 54.2 mM) | CC(=O)NC[C@H]1CN(c2ccc(N3CCN(C(=O)COP(=O)(O)O)CC3)c(F)c2)C(=O)O1 [Example 20, Phosphoric acid, 2-(4-(4-(5-((acetylamino)methyl)-2-oxo-3-oxazolidinyl)-2-fluorophenyl)-1-piperazinyl)-2-oxoethyl ester, (S)] | 6 | 4
13000 (≈ 25.5 mM) | CC(=O)NC[C@H]1CN(c2ccc(N3CCN(C(=O)COC(=O)C(C)(CO)CO)CC3)c(F)c2)C(=O)O1 [Example 22, 2,2-bis(hydroxymethyl)propionic acid, 2-[4-[4-[5-[(acetylamino)methyl]-2-oxo-3-oxazolidinyl]-2-fluorophenyl]-1-piperazinyl]-2-oxoethyl ester, (S)-] | > 18 | 4
8200 (≈ 14.8 mM) | CC(=O)NC[C@H]1CN(c2cc(F)c(N3CCN(C(=O)COC(=O)CCN4CCOCC4)CC3)c(F)c2)C(=O)O1 [Example 26, 3-(N-morpholinyl)propionic acid, 2-(4-(4-(5-((acetylamino)methyl)-2-oxo-3-oxaxzolidinyl)-2,6-difluorophenyl)-1-piperazinyl)-2-oxoethyl ester, (S)] | 6 | 3
90 (≈ 0.15 mM) | CC(=O)NC[C@H]1CN(c2ccc(N3CCN(C(=O)COC(=O)c4ccc(NC(=O)CN(C)C)cc4)CC3)c(F)c2)C(=O)O1 [Example 28, 4-N-(N,N-dimethylglycinyl)aminobenzoic acid, 2-[4-[4-[5-[(acetylamino)methyl]-2-oxo-3-oxazolidinyl]-2-fluorophenyl]-1-piperazinyl]-2-oxoethyl ester, (S)-] | – | –
30 (≈ 0.0584 mM) | CC(=O)NC[C@H]1CN(c2ccc(N3CCN(C(=O)COC(=O)c4ccc(N)cc4)CC3)c(F)c2)C(=O)O1 [Example 21, 4-aminobenzoic acid, 2-[4-[4-[5-[(acetylamino)methyl]-2-oxo-3-oxazolidinyl]-2-fluorophenyl]-1-piperazinyl]-2-oxoethyl ester, (S)-] | 8 | 13
6400 (≈ 13.7 mM) | COCC(=O)OCC(=O)N1CCN(c2ccc(N3C[C@H](CNC(C)=O)OC3=O)cc2F)CC1 [Example 25, Methoxyacetic acid, 2-(4-(4-(5-((acetylamino)methyl)-2-oxo3-oxazolidinyl)-2-fluorophenyl)-1-piperazinyl)-2-oxoethyl ester, (S)] | 8 | 15
9800 (≈ 17.2 mM) | CC(=O)NC[C@H]1CN(c2ccc(N3CCN(C(=O)COC(=O)c4ccc(NC(=O)CN)cc4)CC3)c(F)c2)C(=O)O1 [Example 29, 4-N-(glycinyl)aminobenzoic acid, 2-[4-[4-[5-[(acetylamino)methyl]-2-oxo-3-oxazolidinyl]-2-fluorophenyl]-1-piperazinyl]-2-oxoethyl ester, (S)-] | 9 | –
4200 (≈ 9.28 mM) | CC(=O)NC[C@H]1CN(c2ccc(N3CCN(C(=O)COC(=O)CO)CC3)c(F)c2)C(=O)O1 [Example 23, Hydroxyacetic acid, 2-[4-[4-[5[(acetylamino)methyl]-2-oxo-3-oxazolidinyl]-2-fluorophenyl]-1-piperazinyl]-2-oxoethyl ester, (S)] | 2 | 1
